For this assay, the system named is MCH receptors. Description: MCH receptor activity class (method not given).
[1] abbreviates: class by percent of control at 10^-7 M or IC50.
Setting [2] is: MCH receptor, class by percent of control at 10^-7 M or IC50.
The mark [3] stands for this setting: class 1-3 by percent of control at 10^-7 M or IC50.
Where [4] appears, read: MCH receptor activity class 1-3 (percent of control at 10^-7 M or IC50).
The mark [5] stands for this setting: class by percent of control at 10^−7 M or IC50.

For `CN(C)c1ccc(CNC[C@H]2CC[C@@H](Nc3nccc(N(C)C)n3)CC2)cc1` [compound 1272], under setting [1], the class is on record as 3 (Class 3 The value of percent of control at 10^−7 M was more than 60% or the value of IC50 was more than 200 nM.).
For the compound `CN(C)c1cc(N[C@H]2CC[C@@H](NC(=O)Nc3c(Cl)c(Cl)cc(Cl)c3Cl)CC2)nc2ccccc12` [compound 2138], under setting [1], the class is reported as 3 (Class 3 The value of percent of control at 10^−7 M was more than 60% or the value of IC50 was more than 200 nM.).
For the compound `CN(C)c1nc(N[C@H]2CC[C@@H](NC(=O)NCCc3ccccc3)CC2)nc2c1CCCC2` [compound 1906], the class under setting [2] was 3 (Class 3 The value of percent of control at 10^−7 M was more than 60% or the value of IC50 was more than 200 nM.).
For `Cc1nn(-c2ccccc2)nc1C(=O)N[C@H]1CC[C@@H](Nc2nccc(N(C)C)n2)CC1` [compound 325, N-(cis-4-{[4-(dimethylamino)pyrimidin-2-yl]amino}cyclohexyl)-5-methyl-2-phenyl-2H-1,2,3-triazole-4-carboxamide], under setting [1], the class is reported as 1 (Class 1: The value of percent of control at 10^−7 M was less than 40% or the value of IC50 was less than 50 nM.).
For the compound `Cc1cc(Br)cc(C)c1NC(=S)N[C@H]1CC[C@@H](Nc2nc3c(c(N(C)C)n2)CCCC3)CC1` [compound 1763, N-(4-bromo-2,6-dimethylphenyl)-N′-(cis-4-{[4-(dimethylamino)-5,6,7,8-tetrahydroquinazolin-2-yl]amino}cyclohexyl)thiourea], the class under setting [1] was 1 (Class 1: The value of percent of control at 10^−7 M was less than 40% or the value of IC50 was less than 50 nM.).
On to `COc1ccc(F)c(CNC[C@H]2CC[C@@H](Nc3nccc(N(C)C)n3)CC2)c1` [compound 1285], for which the class under setting [1] is 3 (Class 3 The value of percent of control at 10^−7 M was more than 60% or the value of IC50 was more than 200 nM.).
For `Cc1cc(C(=O)N[C@H]2CC[C@@H](Nc3nccc(N(C)C)n3)CC2)ccc1[N+](=O)[O-]` [compound 828, N-(cis-4-{[4-(dimethylamino)pyrimidin-2-yl]amino}cyclohexyl)-3-methyl-4-nitrobenzamide], under setting [1], the class was 2 (Class 2: The value of percent of control at 10^−7 M was from 40% to 60% or the value of IC′50 was from 50 nM to 200 nM.).
On to `Cc1cc(C(=O)N[C@H]2CC[C@@H](Nc3nc4c(c(N(C)C)n3)CCCC4)CC2)ccc1Br` [compound 493], for which the class under setting [3] was 2 (Class 2: The value of percent of control at 10^−7 M was from 40% to 60% or the value of IC′50 was from 50 nM to 200 nM.).
In the case of `Cc1c(C)c(C)c(CNC2CCC(Nc3cc(N(C)C)c4ccccc4n3)CC2)c(C)c1C` (stereo not drawn) [compound 1451], the class under setting [1] is 3 (Class 3 The value of percent of control at 10^−7 M was more than 60% or the value of IC50 was more than 200 nM.).
For the compound `CN(C)c1cc(N[C@H]2CC[C@@H](NC(=O)c3ccc(Cl)c(Cl)c3)CC2)nc2ccccc12` [compound 31], the class under setting [2] is given as 1 (Class 1: The value of percent of control at 10^−7 M was less than 40% or the value of IC50 was less than 50 nM.).
As for `CN(C)c1nc(N[C@H]2CC[C@@H](NC(=O)c3ccc4ccccc4c3)CC2)nc2c1CCCC2` [compound 546], under setting [3], the class was 3 (Class 3 The value of percent of control at 10^−7 M was more than 60% or the value of IC50 was more than 200 nM.).
Consider `COc1cc(CNC[C@H]2CC[C@@H](Nc3cc(N(C)C)c4ccccc4n3)CC2)cc(I)c1O` [compound 1139], for which, where the note is “activity class per percent of control at 10^-7 M or IC50”, the class was 3 (Class 3 The value of percent of control at 10^−7 M was more than 60% or the value of IC50 was more than 200 nM.).
Consider `CN(C)c1ccnc(N[C@H]2CC[C@@H](CNC(=O)CCc3ccccc3O)CC2)n1` [compound 931], for which, under setting [1], the class is 3 (Class 3 The value of percent of control at 10^−7 M was more than 60% or the value of IC50 was more than 200 nM.).
`COc1ccc(NC(=O)N[C@H]2CC[C@@H](Nc3nccc(N(C)C)n3)CC2)cc1Cl` [compound 2241]: the class under setting [1] was 3 (Class 3 The value of percent of control at 10^−7 M was more than 60% or the value of IC50 was more than 200 nM.).
Take `CN(C)c1cc(N[C@H]2CC[C@@H](NC(=O)c3cn(Cc4ccccc4)c4ccccc34)CC2)nc2ccccc12` [compound 691]: under setting [1], the class was 3 (Class 3 The value of percent of control at 10^−7 M was more than 60% or the value of IC50 was more than 200 nM.).
Regarding `CN(C)c1ccnc(N[C@H]2CC[C@@H](CNC(=O)Nc3ccccc3C(F)(F)F)CC2)n1` [compound 2412], under setting [4], the class is 3 (Class 3 The value of percent of control at 10^−7 M was more than 60% or the value of IC50 was more than 200 nM.).
For the compound `CN(C)c1cc(N[C@H]2CC[C@@H](NC(=O)Cc3cc(C(C)(C)C)c(O)c(C(C)(C)C)c3)CC2)nc2ccccc12` [compound 703], the class under setting [1] was 3 (Class 3 The value of percent of control at 10^−7 M was more than 60% or the value of IC50 was more than 200 nM.).
Consider `Cc1ccc(S(=O)(=O)n2ccc(C(=O)N[C@H]3CC[C@@H](Nc4cc(N(C)C)c5ccccc5n4)CC3)c2)cc1` [compound 762], for which the class under setting [1] is recorded as 3 (Class 3 The value of percent of control at 10^−7 M was more than 60% or the value of IC50 was more than 200 nM.).
With `CCC(Oc1ccccc1)C(=O)N[C@H]1CC[C@@H](Nc2nccc(N(C)C)n2)CC1` (relative stereo) [compound 266, N-(cis-4-{[4-(dimethylamino)pyrimidin-2-yl]amino}cyclohexyl)-2-phenoxybutanamide], the class under setting [1] is listed as 2 (Class 2: The value of percent of control at 10^−7 M was from 40% to 60% or the value of IC′50 was from 50 nM to 200 nM.).
With `CN(C)c1ccnc(N[C@H]2CC[C@@H](NC(=O)CCC3CCCCC3)CC2)n1` [compound 834], the class under setting [1] is 3 (Class 3 The value of percent of control at 10^−7 M was more than 60% or the value of IC50 was more than 200 nM.).
As to `Cc1cc(N(C)C)nc(NC[C@H]2CC[C@@H](NC(=O)c3ccc(OC(F)(F)F)cc3)CC2)n1` [compound 2742], the class under setting [5] was 3 (Class 3 The value of percent of control at 10^−7 M was more than 60% or the value of IC50 was more than 200 nM.).
Regarding `Cc1cc(C)c(CCNC[C@H]2CC[C@@H](Nc3cc(N(C)C)c4ccccc4n3)CC2)c(C)c1` [compound 1466], under setting [1], the class is reported as 3 (Class 3 The value of percent of control at 10^−7 M was more than 60% or the value of IC50 was more than 200 nM.).
On to `Cc1nc(N[C@H]2CC[C@@H](NC(=O)c3ccc(C(F)(F)F)cc3)CC2)nc(N(C)C)c1C` [compound 2850, N-(cis-4-{[4-(dimethylamino)-5,6-dimethylpyrimidin-2-yl]amino}cyclohexyl)-4-(trifluoromethyl)benzamide], for which, under setting [5], the class was 1 (Class 1: The value of percent of control at 10^−7 M was less than 40% or the value of IC50 was less than 50 nM.).
Regarding `Cc1onc(-c2ccccc2Cl)c1C(=O)N[C@H]1CC[C@@H](Nc2nc3c(c(N(C)C)n2)CCCC3)CC1` [compound 534], the class under setting [3] was 2 (Class 2: The value of percent of control at 10^−7 M was from 40% to 60% or the value of IC′50 was from 50 nM to 200 nM.).
Regarding `CN(C)c1ccnc(N[C@H]2CC[C@@H](NC(=O)CC(c3ccccc3)c3ccccc3)CC2)n1` [compound 895], under setting [1], the class is 3 (Class 3 The value of percent of control at 10^−7 M was more than 60% or the value of IC50 was more than 200 nM.).
Turning to `Cc1nc(N[C@H]2CC[C@@H](NC(=O)Nc3ccc(OCc4ccccc4)cc3)CC2)nc(N(C)C)c1C` [compound 2869], the class under setting [5] was 3 (Class 3 The value of percent of control at 10^−7 M was more than 60% or the value of IC50 was more than 200 nM.).
As for `Cc1cnc(N[C@H]2CC[C@@H](CNC(=O)c3cccnc3Oc3cccc(Cl)c3)C2)nc1N(C)C` [compound 3018], the class under setting [5] was 3 (Class 3 The value of percent of control at 10^−7 M was more than 60% or the value of IC50 was more than 200 nM.).
For the compound `COc1cc(CNC[C@H]2CC[C@@H](Nc3cc(N(C)C)c4ccccc4n3)CC2)cc(Br)c1OC` [compound 1189], the class under setting [1] was 3 (Class 3 The value of percent of control at 10^−7 M was more than 60% or the value of IC50 was more than 200 nM.).
`CC(C)c1ccc(NC(=S)N[C@H]2CC[C@@H](Nc3nc4c(c(N(C)C)n3)CCCC4)CC2)c(Br)c1` [compound 2060]: the class under setting [2] was 3 (Class 3 The value of percent of control at 10^−7 M was more than 60% or the value of IC50 was more than 200 nM.).
On to `CN(C)c1cc(N[C@H]2CC[C@@H](NC(=O)Nc3ccc(Cl)cc3C(F)(F)F)CC2)nc2ccccc12` [compound 2117], for which, under setting [1], the class is on record as 3 (Class 3 The value of percent of control at 10^−7 M was more than 60% or the value of IC50 was more than 200 nM.).
Consider `Cc1cc(C)c(NC(=O)NC[C@H]2CC[C@@H](Nc3nc4c(c(N(C)C)n3)CCCC4)CC2)c(C)c1` [compound 2459], for which, under setting [4], the class is on record as 1 (Class 1: The value of percent of control at 10^−7 M was less than 40% or the value of IC50 was less than 50 nM.).
On to `COc1cc(CNC[C@H]2CC[C@@H](Nc3nccc(N(C)C)n3)CC2)cc2c1OCO2` [compound 1309], for which the class under setting [1] is recorded as 1 (Class 1: The value of percent of control at 10^−7 M was less than 40% or the value of IC50 was less than 50 nM.).
Same read-out and setting: with `CN(C)c1cc(N[C@H]2CC[C@@H](NC(=O)C3CCc4ccccc4C3)CC2)nc2ccccc12` (relative stereo) [compound 778] the figure was 3 (Class 3 The value of percent of control at 10^−7 M was more than 60% or the value of IC50 was more than 200 nM.).
On to `Cc1cnc(NC[C@H]2CC[C@@H](NC(=O)c3ccc(F)c(Cl)c3)CC2)nc1N(C)C` [compound 2726], for which, under setting [5], the class is on record as 2 (Class 2: The value of percent of control at 10^−7 M was from 40% to 60% or the value of IC′50 was from 50 nM to 200 nM.).
For the compound `Cc1cccc(C(C)(C)C)c1NC(=O)N[C@H]1CC[C@@H](Nc2nccc(N(C)C)n2)CC1` [compound 2203], under setting [1], the class is given as 3 (Class 3 The value of percent of control at 10^−7 M was more than 60% or the value of IC50 was more than 200 nM.).
As for `CN(C)c1cc(N[C@H]2CC[C@@H](NC(=O)c3csc4ccccc34)CC2)nc2ccccc12` [compound 91], the class under setting [2] is 3 (Class 3 The value of percent of control at 10^−7 M was more than 60% or the value of IC50 was more than 200 nM.).

The values above are taken from patent US20050197350A1, “Novel quinoline, tetrahydroquinazoline, and pyrimidine derivatives and methods of treatment related to the use thereof” (TAISHO PHARMACEUTICAL CO., LTD., priority 2003, published 2005).
